Data reported in ChEMBL document CHEMBL5058649, “Data for DCP probe BAY 1816032” (2022).

Columns and labels:
[1] = biological target: Serine/threonine-protein kinase SIK2 (Homo sapiens) (UniProt Q9H0K1); assay: SIK2 DiscoveRx kinase panel; settings: Compound concentration 1.0 uM
[2] = biological target: Discoidin domain-containing receptor 2 (Homo sapiens) (UniProt Q16832); assay: DDR2 DiscoveRx kinase panel; settings: Compound concentration 1.0 uM
[3] = biological target: Acetylcholine receptor subunit alpha (Homo sapiens) (UniProt P02708); assay: Inhibition of Nicotinic Acetylcholine D1, Bungarotoxin at 10 µM in the Eurofins-Panlabs radioligand binding assay (Eurofins_assay_258700); settings: Compound concentration 10.0 uM
[4] = biological target: Phosphatidylinositol 4-phosphate 5-kinase type-1 gamma (Homo sapiens) (UniProt O60331); assay: PIP5K1C DiscoveRx kinase panel; settings: Compound concentration 1.0 uM
[5] = biological target: Serine/threonine-protein kinase 24 (Homo sapiens) (UniProt Q9Y6E0); assay: MST3 DiscoveRx kinase panel; settings: Compound concentration 1.0 uM
[6] = biological target: LIM domain kinase 2 (Homo sapiens) (UniProt P53671); assay: LIMK2 DiscoveRx kinase panel; settings: Compound concentration 1.0 uM
[7] = biological target: Mitogen-activated protein kinase 15 (Homo sapiens) (UniProt Q8TD08); assay: ERK8 DiscoveRx kinase panel; settings: Compound concentration 1.0 uM
[8] = biological target: Glutamate receptor 2 (Homo sapiens) (UniProt P42262); settings: Rattus norvegicus; Compound concentration 10.0 uM
[9] = biological target: GABA-A receptor; anion channel (Rattus norvegicus) (UniProt O09028+P15431+P18506+P18508+P19969+P20236+P23574+P23576+P28471+P28473+P30191+P62813+P63079+P63138+Q91ZM7+Q9ES14); settings: Compound concentration 10.0 uM
[10] = biological target: Serine/threonine-protein kinase Nek11 (Homo sapiens) (UniProt Q8NG66); assay: NEK11 DiscoveRx kinase panel; settings: Compound concentration 1.0 uM
[11] = biological target: TGF-beta receptor type-1 (Homo sapiens) (UniProt P36897); assay: TGFBR1 DiscoveRx kinase panel; settings: Compound concentration 1.0 uM
[12] = biological target: Activin receptor type-2A (Homo sapiens) (UniProt P27037); assay: ACVR2A DiscoveRx kinase panel; settings: Compound concentration 1.0 uM
Chain of Activin receptor type-2A (Homo sapiens) (P27037 whole entry): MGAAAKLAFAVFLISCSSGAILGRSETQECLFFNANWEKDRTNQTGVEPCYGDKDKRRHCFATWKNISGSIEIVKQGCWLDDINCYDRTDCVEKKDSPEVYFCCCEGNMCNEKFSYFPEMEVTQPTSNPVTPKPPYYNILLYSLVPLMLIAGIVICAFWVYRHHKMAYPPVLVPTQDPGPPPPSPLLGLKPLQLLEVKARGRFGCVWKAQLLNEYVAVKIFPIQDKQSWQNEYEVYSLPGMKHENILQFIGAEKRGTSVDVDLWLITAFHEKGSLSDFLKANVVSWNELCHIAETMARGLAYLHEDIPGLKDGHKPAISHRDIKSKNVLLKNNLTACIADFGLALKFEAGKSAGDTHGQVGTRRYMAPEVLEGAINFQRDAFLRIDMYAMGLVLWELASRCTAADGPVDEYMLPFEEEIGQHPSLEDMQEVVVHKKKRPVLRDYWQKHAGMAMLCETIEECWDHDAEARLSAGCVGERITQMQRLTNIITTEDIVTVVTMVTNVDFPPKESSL

[13] = biological target: Mitogen-activated protein kinase kinase kinase 14 (Homo sapiens) (UniProt Q99558); assay: NIK DiscoveRx kinase panel; settings: Compound concentration 1.0 uM
[14] = biological target: Phosphatidylinositol 3-kinase catalytic subunit type 3 (Homo sapiens) (UniProt Q8NEB9); assay: VPS34 DiscoveRx kinase panel; settings: Compound concentration 1.0 uM
Chain of Phosphatidylinositol 3-kinase catalytic subunit type 3 (Homo sapiens) (Q8NEB9 whole entry): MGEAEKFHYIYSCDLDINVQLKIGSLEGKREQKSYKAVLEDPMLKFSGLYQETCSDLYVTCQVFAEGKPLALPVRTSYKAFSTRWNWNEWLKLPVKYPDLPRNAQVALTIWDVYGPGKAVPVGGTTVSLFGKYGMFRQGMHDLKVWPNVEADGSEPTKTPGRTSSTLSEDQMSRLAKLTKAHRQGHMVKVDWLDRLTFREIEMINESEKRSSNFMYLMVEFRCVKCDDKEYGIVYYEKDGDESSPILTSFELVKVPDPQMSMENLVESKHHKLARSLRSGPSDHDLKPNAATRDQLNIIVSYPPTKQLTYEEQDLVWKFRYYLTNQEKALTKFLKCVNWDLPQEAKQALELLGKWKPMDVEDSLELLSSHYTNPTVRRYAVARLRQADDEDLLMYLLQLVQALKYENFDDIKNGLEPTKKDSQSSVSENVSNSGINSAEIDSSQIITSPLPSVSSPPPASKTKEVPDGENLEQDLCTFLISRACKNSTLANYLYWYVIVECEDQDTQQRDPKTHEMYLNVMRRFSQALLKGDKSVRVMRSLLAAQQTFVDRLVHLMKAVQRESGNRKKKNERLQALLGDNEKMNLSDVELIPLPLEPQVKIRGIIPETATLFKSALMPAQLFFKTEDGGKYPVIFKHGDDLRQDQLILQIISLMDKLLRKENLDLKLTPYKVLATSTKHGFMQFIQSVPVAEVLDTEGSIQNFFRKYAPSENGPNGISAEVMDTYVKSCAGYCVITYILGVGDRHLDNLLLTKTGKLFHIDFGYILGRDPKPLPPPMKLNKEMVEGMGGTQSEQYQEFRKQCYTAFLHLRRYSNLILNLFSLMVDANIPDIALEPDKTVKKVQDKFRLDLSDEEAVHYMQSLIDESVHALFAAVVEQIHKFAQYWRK

[15] = biological target: Mitogen-activated protein kinase kinase kinase 15 (Homo sapiens) (UniProt Q6ZN16); assay: MAP3K15 DiscoveRx kinase panel; settings: Compound concentration 1.0 uM
[16] = biological target: Interleukin-1 receptor-associated kinase 3 (Homo sapiens) (UniProt Q9Y616); assay: IRAK3 DiscoveRx kinase panel; settings: Compound concentration 1.0 uM
[17] = biological target: Mitogen-activated protein kinase 13 (Homo sapiens) (UniProt O15264); assay: p38-delta DiscoveRx kinase panel; settings: Compound concentration 1.0 uM
[18] = biological target: Protein kinase C eta type (Homo sapiens) (UniProt P24723); assay: PRKCH DiscoveRx kinase panel; settings: Compound concentration 1.0 uM
Chain of Protein kinase C eta type (Homo sapiens) (P24723 whole entry): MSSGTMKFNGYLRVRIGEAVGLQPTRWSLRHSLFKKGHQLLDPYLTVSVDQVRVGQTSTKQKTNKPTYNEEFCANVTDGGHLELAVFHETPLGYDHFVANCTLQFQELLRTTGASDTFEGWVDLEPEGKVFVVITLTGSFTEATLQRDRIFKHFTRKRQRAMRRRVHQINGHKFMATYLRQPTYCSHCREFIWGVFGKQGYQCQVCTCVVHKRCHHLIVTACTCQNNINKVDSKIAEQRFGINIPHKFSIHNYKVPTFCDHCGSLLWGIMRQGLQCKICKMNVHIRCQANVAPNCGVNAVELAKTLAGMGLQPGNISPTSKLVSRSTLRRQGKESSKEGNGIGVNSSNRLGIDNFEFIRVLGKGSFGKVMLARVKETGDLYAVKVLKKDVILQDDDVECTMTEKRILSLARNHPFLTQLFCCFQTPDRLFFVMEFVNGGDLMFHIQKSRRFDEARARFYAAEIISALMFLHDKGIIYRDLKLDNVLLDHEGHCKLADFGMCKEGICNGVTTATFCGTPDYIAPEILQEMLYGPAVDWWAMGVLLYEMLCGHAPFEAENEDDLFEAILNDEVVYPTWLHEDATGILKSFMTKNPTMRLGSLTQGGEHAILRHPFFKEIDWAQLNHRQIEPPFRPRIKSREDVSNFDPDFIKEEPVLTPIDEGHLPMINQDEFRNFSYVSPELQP

[19] = biological target: Delta-type opioid receptor (Homo sapiens) (UniProt P41143); settings: Compound concentration 10.0 uM
[20] = biological target: Vascular endothelial growth factor receptor 1 (Homo sapiens) (UniProt P17948); assay: FLT1 DiscoveRx kinase panel; settings: Compound concentration 1.0 uM
[21] = biological target: Transient receptor potential cation channel subfamily M member 6 (Homo sapiens) (UniProt Q9BX84); assay: TRPM6 DiscoveRx kinase panel; settings: Compound concentration 1.0 uM
[22] = biological target: Phosphatidylinositol 4,5-bisphosphate 3-kinase catalytic subunit alpha isoform (Homo sapiens) (UniProt P42336); assay: PIK3CA DiscoveRx kinase panel; settings: Compound concentration 1.0 uM
Chain of Phosphatidylinositol 4,5-bisphosphate 3-kinase catalytic subunit alpha isoform (Homo sapiens) (P42336 whole entry, canonical isoform): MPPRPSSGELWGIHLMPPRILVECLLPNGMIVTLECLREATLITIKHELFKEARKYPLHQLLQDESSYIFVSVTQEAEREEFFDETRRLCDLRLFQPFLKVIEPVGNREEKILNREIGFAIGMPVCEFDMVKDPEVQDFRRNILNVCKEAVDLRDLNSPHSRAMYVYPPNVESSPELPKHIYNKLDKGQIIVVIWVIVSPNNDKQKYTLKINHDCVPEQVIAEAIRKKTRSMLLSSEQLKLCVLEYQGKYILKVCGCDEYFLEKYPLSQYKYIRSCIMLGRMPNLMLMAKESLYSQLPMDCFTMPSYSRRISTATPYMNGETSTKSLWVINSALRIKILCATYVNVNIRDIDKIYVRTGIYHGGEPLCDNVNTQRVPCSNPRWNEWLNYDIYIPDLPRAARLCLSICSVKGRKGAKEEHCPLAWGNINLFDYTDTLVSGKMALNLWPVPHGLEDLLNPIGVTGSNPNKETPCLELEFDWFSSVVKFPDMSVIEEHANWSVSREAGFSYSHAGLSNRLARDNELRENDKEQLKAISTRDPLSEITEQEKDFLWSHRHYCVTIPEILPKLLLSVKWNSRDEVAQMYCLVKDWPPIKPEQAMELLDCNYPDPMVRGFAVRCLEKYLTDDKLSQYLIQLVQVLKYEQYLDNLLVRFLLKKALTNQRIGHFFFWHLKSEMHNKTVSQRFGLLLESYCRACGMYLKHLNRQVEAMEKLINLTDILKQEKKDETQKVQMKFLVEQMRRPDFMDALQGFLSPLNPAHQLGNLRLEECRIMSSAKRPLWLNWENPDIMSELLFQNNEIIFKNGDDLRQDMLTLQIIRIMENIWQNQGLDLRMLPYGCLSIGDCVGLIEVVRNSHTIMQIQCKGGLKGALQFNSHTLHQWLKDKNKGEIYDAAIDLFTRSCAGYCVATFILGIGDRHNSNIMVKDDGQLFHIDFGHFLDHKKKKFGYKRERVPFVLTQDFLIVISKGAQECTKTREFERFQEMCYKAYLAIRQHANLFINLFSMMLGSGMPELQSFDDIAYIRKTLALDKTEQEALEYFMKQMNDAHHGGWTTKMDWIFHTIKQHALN

[23] = biological target: Dual specificity mitogen-activated protein kinase kinase 7 (Homo sapiens) (UniProt O14733); assay: MKK7 DiscoveRx kinase panel; settings: Compound concentration 1.0 uM
[24] = biological target: Ephrin type-A receptor 7 (Homo sapiens) (UniProt Q15375); assay: EPHA7 DiscoveRx kinase panel; settings: Compound concentration 1.0 uM
[25] = biological target: T1, Alpha-2A adrenergic receptor (Homo sapiens) (UniProt P08913); settings: Compound concentration 10.0 uM
T1 sequence (whole entry): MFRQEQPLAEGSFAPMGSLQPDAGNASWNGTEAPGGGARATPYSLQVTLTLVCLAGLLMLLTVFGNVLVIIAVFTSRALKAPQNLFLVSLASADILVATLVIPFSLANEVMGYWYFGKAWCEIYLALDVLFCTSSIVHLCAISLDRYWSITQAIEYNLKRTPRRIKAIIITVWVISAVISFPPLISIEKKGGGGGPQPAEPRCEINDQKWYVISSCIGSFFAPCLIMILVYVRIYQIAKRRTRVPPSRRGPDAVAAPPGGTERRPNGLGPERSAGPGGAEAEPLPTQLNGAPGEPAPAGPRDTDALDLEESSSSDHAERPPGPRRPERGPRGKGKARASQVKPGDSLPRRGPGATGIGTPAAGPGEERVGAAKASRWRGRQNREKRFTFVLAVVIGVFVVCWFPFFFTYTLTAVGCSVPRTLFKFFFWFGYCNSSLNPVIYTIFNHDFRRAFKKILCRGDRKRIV

[26] = biological target: Mitogen-activated protein kinase kinase kinase 20 (Homo sapiens) (UniProt Q9NYL2); assay: ZAK DiscoveRx kinase panel; settings: Compound concentration 1.0 uM
[27] = biological target: Serine/threonine-protein kinase TAO3 (Homo sapiens) (UniProt Q9H2K8); assay: TAOK3 DiscoveRx kinase panel; settings: Compound concentration 1.0 uM
Chain of Serine/threonine-protein kinase TAO3 (Homo sapiens) (Q9H2K8 whole entry): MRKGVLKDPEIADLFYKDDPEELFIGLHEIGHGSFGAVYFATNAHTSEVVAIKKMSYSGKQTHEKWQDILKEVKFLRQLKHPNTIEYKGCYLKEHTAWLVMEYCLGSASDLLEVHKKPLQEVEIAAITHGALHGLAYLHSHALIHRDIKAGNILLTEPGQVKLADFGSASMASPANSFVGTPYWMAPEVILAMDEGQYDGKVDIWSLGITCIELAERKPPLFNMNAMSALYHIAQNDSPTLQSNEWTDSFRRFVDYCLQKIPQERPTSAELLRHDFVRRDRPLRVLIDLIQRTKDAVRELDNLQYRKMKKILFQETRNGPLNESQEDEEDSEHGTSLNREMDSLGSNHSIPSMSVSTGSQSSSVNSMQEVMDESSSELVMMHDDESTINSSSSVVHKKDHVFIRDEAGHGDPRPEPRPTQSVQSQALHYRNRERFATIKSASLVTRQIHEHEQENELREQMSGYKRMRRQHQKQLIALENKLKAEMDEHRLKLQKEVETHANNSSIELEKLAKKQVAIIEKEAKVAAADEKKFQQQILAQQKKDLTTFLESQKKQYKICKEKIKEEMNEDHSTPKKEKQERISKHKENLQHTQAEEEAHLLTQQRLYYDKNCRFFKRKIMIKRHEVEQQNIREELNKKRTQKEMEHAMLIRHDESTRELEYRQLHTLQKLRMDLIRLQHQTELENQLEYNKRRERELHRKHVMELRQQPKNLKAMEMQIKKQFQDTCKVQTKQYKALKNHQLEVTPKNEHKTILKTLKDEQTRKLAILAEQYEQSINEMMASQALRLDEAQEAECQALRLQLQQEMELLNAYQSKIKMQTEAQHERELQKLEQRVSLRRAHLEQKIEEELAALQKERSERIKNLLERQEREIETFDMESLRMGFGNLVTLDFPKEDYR

[28] = biological target: Tyrosine-protein kinase receptor Tie-1 (Homo sapiens) (UniProt P35590); assay: TIE1 DiscoveRx kinase panel; settings: Compound concentration 1.0 uM
[29] = biological target: Mitogen-activated protein kinase 1 (Homo sapiens) (UniProt P28482); assay: ERK2 DiscoveRx kinase panel; settings: Compound concentration 1.0 uM
[30] = biological target: Cyclin-dependent kinase 14 (Homo sapiens) (UniProt O94921); assay: PFTK1 DiscoveRx kinase panel; settings: Compound concentration 1.0 uM
[31] = biological target: 5'-AMP-activated protein kinase catalytic subunit alpha-2 (Homo sapiens) (UniProt P54646); assay: AMPK-alpha2 DiscoveRx kinase panel; settings: Compound concentration 1.0 uM
[32] = biological target: Serine/threonine-protein kinase PRP4 homolog (Homo sapiens) (UniProt Q13523); assay: PRP4 DiscoveRx kinase panel; settings: Compound concentration 1.0 uM
[33] = biological target: Sodium-dependent dopamine transporter (Homo sapiens, UniProt Q01959); settings: Compound concentration 10.0 uM
[34] = biological target: RAC-alpha serine/threonine-protein kinase (Homo sapiens) (UniProt P31749); assay: AKT1 DiscoveRx kinase panel; settings: Compound concentration 1.0 uM
[35] = biological target: Ribosomal protein S6 kinase alpha-4 (Homo sapiens) (UniProt O75676); assay: RPS6KA4(Kin.Dom.1-N-terminal) DiscoveRx kinase panel; settings: Compound concentration 1.0 uM
[36] = biological target: Mitogen-activated protein kinase kinase kinase 10 (Homo sapiens) (UniProt Q02779); assay: MLK2 DiscoveRx kinase panel; settings: Compound concentration 1.0 uM
Chain of Mitogen-activated protein kinase kinase kinase 10 (Homo sapiens) (Q02779 whole entry, looked up): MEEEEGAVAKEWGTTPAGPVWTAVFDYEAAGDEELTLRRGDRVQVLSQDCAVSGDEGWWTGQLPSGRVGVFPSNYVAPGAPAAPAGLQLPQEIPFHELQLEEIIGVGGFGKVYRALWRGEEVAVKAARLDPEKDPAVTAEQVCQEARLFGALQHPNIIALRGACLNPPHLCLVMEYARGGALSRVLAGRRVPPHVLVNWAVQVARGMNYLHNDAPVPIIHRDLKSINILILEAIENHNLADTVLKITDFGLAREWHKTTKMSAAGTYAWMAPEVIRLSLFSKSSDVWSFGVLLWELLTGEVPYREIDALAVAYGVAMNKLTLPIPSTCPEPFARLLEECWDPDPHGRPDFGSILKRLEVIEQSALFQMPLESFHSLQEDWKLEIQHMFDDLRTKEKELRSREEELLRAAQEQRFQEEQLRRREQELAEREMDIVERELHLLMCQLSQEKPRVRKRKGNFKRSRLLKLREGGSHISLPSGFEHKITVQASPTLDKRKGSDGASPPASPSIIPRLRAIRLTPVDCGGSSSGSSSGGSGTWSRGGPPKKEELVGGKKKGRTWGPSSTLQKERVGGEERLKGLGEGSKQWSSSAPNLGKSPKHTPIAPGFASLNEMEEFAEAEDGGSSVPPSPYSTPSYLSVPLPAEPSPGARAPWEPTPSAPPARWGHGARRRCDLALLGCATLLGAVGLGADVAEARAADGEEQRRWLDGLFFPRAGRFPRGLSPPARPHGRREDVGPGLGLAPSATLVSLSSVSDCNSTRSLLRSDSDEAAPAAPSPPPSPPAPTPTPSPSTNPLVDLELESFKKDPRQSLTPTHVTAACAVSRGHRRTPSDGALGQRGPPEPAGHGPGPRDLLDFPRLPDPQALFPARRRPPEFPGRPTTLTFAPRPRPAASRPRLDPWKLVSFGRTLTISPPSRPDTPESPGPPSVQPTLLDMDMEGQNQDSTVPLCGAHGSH

[37] = biological target: MAP/microtubule affinity-regulating kinase 3 (Homo sapiens) (UniProt P27448); assay: MARK3 DiscoveRx kinase panel; settings: Compound concentration 1.0 uM
[38] = biological target: Serine/threonine-protein kinase 10 (Homo sapiens, UniProt O94804); assay: LOK DiscoveRx kinase panel
[39] = biological target: Serine/threonine-protein kinase PAK 3 (Homo sapiens) (UniProt O75914); assay: PAK3 DiscoveRx kinase panel; settings: Compound concentration 1.0 uM
[40] = biological target: Receptor tyrosine-protein kinase erbB-4 (Homo sapiens) (UniProt Q15303); assay: ERBB4 DiscoveRx kinase panel; settings: Compound concentration 1.0 uM

COc1cnccc1Nc1nc(-c2nn(Cc3c(F)cc(OCCO)cc3F)c3ccccc23)ncc1OC
residual activity [1]: 100%
residual activity [2]: 93%
inhibition [3]: 14%
residual activity [4]: 100%
residual activity [5]: 100%
residual activity [6]: 97%
residual activity [7]: 100%
inhibition [8]: 7%
inhibition [9]: 60%
residual activity [10]: 96%
residual activity [11]: 53%
residual activity [12]: 100%
residual activity [13]: 100%
residual activity [14]: 55%
residual activity [15]: 87%
residual activity [16]: 92%
residual activity [17]: 99%
residual activity [18]: 89%
inhibition [19]: -6%
residual activity [20]: 89%
residual activity [21]: 82%
residual activity [22]: 100%
residual activity [23]: 98%
residual activity [24]: 98%
inhibition [25]: 7.49%
residual activity [26]: 42%
residual activity [27]: 100%
residual activity [28]: 65%
residual activity [29]: 93%
residual activity [30]: 87%
residual activity [31]: 95%
residual activity [32]: 96%
inhibition [33]: -5%
residual activity [34]: 100%
residual activity [35]: 91%
residual activity [36]: 76%
residual activity [37]: 73%
residual activity [38]: 57%
residual activity ([38]; Compound concentration 1.0 uM): 0.6%
residual activity [39]: 81%
residual activity [40]: 100%
